Values quoted from earlier work as cited in patent US5493006A, “Cyclic CRF analogs” (The Salk Institute for Biological Studies, priority 1993, dated 1996).
Entries after “also recorded” stand apart in the source; their conditions may differ. Ends that are not written are not given here.

What was measured:
[1] = system: secretion of ACTH and β-END-LI; details: in vitro and in vivo; background statement
[2] = injected peripherally; background statement

oCRF: ovine corticotropin releasing factor, a 41-residue amidated peptide (SQEPPISLDLTFHLLREVLEMTKADQLAQQAHSNRKLLDIA-NH2; UniProt P01142 148-188, looked up)
stimulation of ACTH and β-endorphin-like activities (β-END-Li) [1]: stimulates the secretion of ACTH and β-endorphin; also recorded: stimulate ACTH and β-endorphin-like activities (β-END-Li) in vitro and in vivo | lowering of blood pressure [2]: lowers blood pressure; also recorded: substantially lower blood pressure

rCRF: rat CRF, a homologous, amidated hentetracontapeptide; same formula as human CRF (SEEPPISLDLTFHLLREVLEMARAEQLAQQAHSNRKLMEII-NH2; UniProt P01143 145-185, looked up)
stimulation of ACTH and β-endorphin-like activities (β-END-Li) [1]: stimulate ACTH and β-endorphin-like activities (β-END-Li) in vitro and in vivo | lowering of blood pressure [2]: substantially lower blood pressure
